According to US5391540A, “Substituted pyridine compounds” (Rohm and Haas Company, priority 1993, dated 1995):

Experiments:
Type in all cases: in vivo
[1] = tested on: Barnyardgrass; assay: Post-emergence herbicidal activity (Table C); settings: Bygr, 11.2 kg/ha, 10-14 days
Source text: (§1) In the tests which follow, larger and more developed plants were used.
(§2) The post-emergent herbicidal activity index used in Table C is as follows:
(§3) Top soil was placed in pans having holes in the bottom and compacted to a depth of 0.95 to 1.27 cm. from the top of the pan. A predetermined number of seeds of each of several dicotyledonous and monocotyledonous annual plant species and/or vegetative propagules for the perennial plant species were placed on the soil and pressed into the soil surface. The seeds and/or vegetative propagules were covered with soil and leveled. The pans were then placed on a bench in the greenhouse and watered as needed for germination and growth. After the plants reached the desired age (two to three weeks), each pan (except the control pans) was moved to a spraying chamber and sprayed by means of an atomizer. […] The plant identifying codes in Table C are the same as above defined.

[2] = tested on: Common Lambsquarters; assay: Post-emergence herbicidal activity (Table C); settings: Colq, 11.2 kg/ha, 10-14 days
Source text: as §1, §2, §3

[3] = tested on: Morningglory; assay: Post-emergence herbicidal activity (Table C); settings: Mogl, 11.2 kg/ha, 10-14 days
Source text: (§4) The post-emergent activity is best seen on younger plants treated at the 11/2 to 2 leaf stage. In the tests which follow, larger and more developed plants were used.
as §2
as §3, with “atomizer. The spray solution or suspension contained about 0.4% by volume of an emulsifying agent and a sufficient amount of the candidate chemical to give an application rate of the active ingredient of 11.2 kg/ha while applying a total amount of solution or suspension equivalent to 1870 L/ha.” for “atomizer.”

[4] = tested on: Pennsylvania Smartweed; assay: Post-emergence herbicidal activity (Table C); settings: Pesw, 11.2 kg/ha, 10-14 days
Source text: as §4, §2
as §3, with “atomizer. The spray solution or suspension contained about 0.4% by volume of an emulsifying agent and a sufficient amount of the candidate chemical to give an application rate of the active ingredient of 11.2 kg/ha while applying a total amount of solution or suspension equivalent to 1870 L/ha.” for “atomizer.”

[5] = tested on: Yellow Nutsedge; assay: Post-emergence herbicidal activity (Table C); settings: Yens, 11.2 kg/ha, 10-14 days
Source text: as §4, §2
as §3, with “atomizer. The spray solution or suspension contained about 0.4% by volume of an emulsifying agent and a sufficient amount of the candidate chemical to give an application rate of the active ingredient of 11.2 kg/ha while applying a total amount of solution or suspension equivalent to 1870 L/ha.” for “atomizer.”

[6] = tested on: Quackgrass; assay: Post-emergence herbicidal activity (Table C); settings: Rhqg, 11.2 kg/ha, 10-14 days
Source text: as §4, §2
as §3, with “atomizer. The spray solution or suspension contained about 0.4% by volume of an emulsifying agent and a sufficient amount of the candidate chemical to give an application rate of the active ingredient of 11.2 kg/ha while applying a total amount of solution or suspension equivalent to 1870 L/ha.” for “atomizer.”

[7] = tested on: Rhizome Johnsongrass; assay: Post-emergence herbicidal activity (Table C); settings: Rhjg, 11.2 kg/ha, 10-14 days
Source text: as §4, §2
as §3, with “atomizer. The spray solution or suspension contained about 0.4% by volume of an emulsifying agent and a sufficient amount of the candidate chemical to give an application rate of the active ingredient of 11.2 kg/ha while applying a total amount of solution or suspension equivalent to 1870 L/ha.” for “atomizer.”

[8] = tested on: Downy Brome; assay: Post-emergence herbicidal activity (Table C); settings: Dobr, 11.2 kg/ha, 10-14 days
Source text: as §4, §2
as §3, with “atomizer. The spray solution or suspension contained about 0.4% by volume of an emulsifying agent and a sufficient amount of the candidate chemical to give an application rate of the active ingredient of 11.2 kg/ha while applying a total amount of solution or suspension equivalent to 1870 L/ha.” for “atomizer.”

[9] = tested on: Cocklebur; assay: Post-emergence herbicidal activity (Table C); settings: Cobu, 11.2 kg/ha, 10-14 days
Source text: as §4, §2
as §3, with “atomizer. The spray solution or suspension contained about 0.4% by volume of an emulsifying agent and a sufficient amount of the candidate chemical to give an application rate of the active ingredient of 11.2 kg/ha while applying a total amount of solution or suspension equivalent to 1870 L/ha.” for “atomizer.”

[10] = tested on: Canada thistle; assay: Post-emergence herbicidal activity (Table C); settings: Cath, 11.2 kg/ha, 10-14 days
Source text: as §4, §2
as §3, with “atomizer. The spray solution or suspension contained about 0.4% by volume of an emulsifying agent and a sufficient amount of the candidate chemical to give an application rate of the active ingredient of 11.2 kg/ha while applying a total amount of solution or suspension equivalent to 1870 L/ha.” for “atomizer.”

[11] = tested on: Velvetleaf; assay: Post-emergence herbicidal activity (Table C); settings: Vele, 11.2 kg/ha, 10-14 days
Source text: as §4, §2
as §3, with “atomizer. The spray solution or suspension contained about 0.4% by volume of an emulsifying agent and a sufficient amount of the candidate chemical to give an application rate of the active ingredient of 11.2 kg/ha while applying a total amount of solution or suspension equivalent to 1870 L/ha.” for “atomizer.”

[12] = tested on: Morningglory; assay: Pre-emergent herbicidal activity (Table A); settings: Mogl, 11.2 kg/ha, 10-14 days; for inhibition at 11200 g/ha: Ipomoea, pre-emergence, read-out: herbicidal rating (% inhibition)
Outline: (§5)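 Seeds or vegetative propagules were set on topsoil compacted to 0.95 to 1.27 cm below the pan rim, then covered with soil thoroughly mixed with a known amount of test compound in acetone or water carrier. Ratings follow a scale of percent inhibition per species.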

[13] = tested on: Pennsylvania Smartweed; assay: Pre-emergent herbicidal activity (Table A); settings: Pesw, 11.2 kg/ha, 10-14 days
Outline: as §5

[14] = tested on: Yellow Nutsedge; assay: Pre-emergent herbicidal activity (Table A); settings: Yens, 11.2 kg/ha, 10-14 days; for inhibition at 11200 g/ha: Cyperus, pre-emergence, read-out: herbicidal rating (% inhibition)
Outline: as §5

[15] = tested on: Quackgrass; assay: Pre-emergent herbicidal activity (Table A); settings: Rhqg, 11.2 kg/ha, 10-14 days
Outline: as §5

[16] = tested on: Rhizome Johnsongrass; assay: Pre-emergent herbicidal activity (Table A); settings: Rhjg, 11.2 kg/ha, 10-14 days
Outline: as §5

[17] = tested on: Downy Brome; assay: Pre-emergent herbicidal activity (Table A); settings: Dobr, 11.2 kg/ha, 10-14 days; for inhibition at 11200 g/ha: Bromus tectorum, pre-emergence, read-out: herbicidal rating (% inhibition)
Outline: as §5

[18] = tested on: Cocklebur; assay: Pre-emergent herbicidal activity (Table A); settings: Cobu, 11.2 kg/ha, 10-14 days; for inhibition at 11200 g/ha: Xanthium strumarium, pre-emergence, read-out: herbicidal rating (% inhibition)
Outline: as §5

[19] = tested on: Barnyardgrass; assay: Pre-emergent herbicidal activity (Table A); settings: Bygr, 11.2 kg/ha, 10-14 days; for inhibition at 11200 g/ha: Echinochloa crus-galli, pre-emergence, read-out: herbicidal rating (% inhibition)
Outline: as §5

[20] = tested on: Canada thistle; assay: Pre-emergent herbicidal activity (Table A); settings: Cath, 11.2 kg/ha, 10-14 days
Outline: as §5

[21] = tested on: Common Lambsquarters; assay: Pre-emergent herbicidal activity (Table A); settings: Colq, 11.2 kg/ha, 10-14 days
Outline: as §5

[22] = tested on: Velvetleaf; assay: Pre-emergent herbicidal activity (Table A); settings: Vele, 11.2 kg/ha, 10-14 days; for inhibition at 11200 g/ha: Abutilon theophrasti, pre-emergence, read-out: herbicidal rating (% inhibition)
Outline: as §5

[23] = tested on: Indian Mustard; assay: Pre-emergent herbicidal activity (Table A); settings: Brassica juncea, pre-emergence, Inmu, 11.2 kg/ha, 10-14 days, read-out: herbicidal rating (% inhibition)
Outline: (§6)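 Compound incorporated into the cover-soil layer over sown seed at a rate equivalent to 11.2 kg/ha (acetone or water carrier). Greenhouse growth with watering as needed; ratings reflect percent inhibition per species, recorded around day 11 (range 10–14).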

[24] = tested on: Wild Buckwheat; assay: Pre-emergent herbicidal activity (Table A); settings: Fallopia convolvulus, pre-emergence, Wibw, 11.2 kg/ha, 10-14 days, read-out: herbicidal rating (% inhibition)
Outline: as §6

[25] = tested on: Seedling Johnsongrass; assay: Pre-emergent herbicidal activity (Table A); settings: Sorghum halepense, pre-emergence, Sejg, 11.2 kg/ha, 10-14 days, read-out: herbicidal rating (% inhibition)
Outline: as §6

[26] = tested on: Annual Bluegrass; assay: Pre-emergent herbicidal activity (Table A); settings: pre-emergence, Anbg, 11.2 kg/ha, 10-14 days, read-out: herbicidal rating (% inhibition)
Outline: as §6

3-pyridinecarboxylic acid, 5-(aminocarbonyl)-1,2,3,4-tetrahydro-4-(2-methylpropyl)-6-(pentafluoroethyl)-, ethyl ester [Compound 10]
0 (0-24): herbicidal rating (% inhibition) [12] | herbicidal rating (% inhibition) [13] | herbicidal rating (% inhibition) [14] | herbicidal rating (% inhibition) [15] | herbicidal rating (% inhibition) [16] | herbicidal rating (% inhibition) [17] | herbicidal rating (% inhibition) [18] | herbicidal rating (% inhibition) [19] | herbicidal rating (% inhibition) [20] | herbicidal rating (% inhibition) [21] | herbicidal rating (% inhibition) [22]
0 (0-24% inhibition): post-emergent herbicidal activity index [1] | post-emergent herbicidal activity index [2] | post-emergent herbicidal activity index [3] | post-emergent herbicidal activity index [4] | post-emergent herbicidal activity index [5] | post-emergent herbicidal activity index [6] | post-emergent herbicidal activity index [7] | post-emergent herbicidal activity index [8] | post-emergent herbicidal activity index [9] | post-emergent herbicidal activity index [10] | post-emergent herbicidal activity index [11]

COC(=O)c1c(OC(Cl)(Cl)Cl)nc(C(F)(F)F)c(C(=O)OC)c1CC(C)C [Compound 96, 3,5-pyridinedicarboxylic acid, 4-(2-methylpropyl)-2-(trichloromethoxy)-6-(trifluoromethyl)-, dimethyl ester]
0 to 24%: inhibition at 11200 g/ha [14] | inhibition at 11200 g/ha [18]
75 to 100%: inhibition at 11200 g/ha [23] | inhibition at 11200 g/ha [24] | inhibition at 11200 g/ha [25] | inhibition at 11200 g/ha [26] | inhibition at 11200 g/ha [12] | inhibition at 11200 g/ha [19] | inhibition at 11200 g/ha [22]
50 to 74%: inhibition at 11200 g/ha [17]

C=C1CC(c2c(C(F)(F)F)nc(OC)c(C(=O)OC)c2CC(C)C)OC1=O (stereo not drawn) [Compound 90, 3-pyridinecarboxylic acid, 5-(tetrahydro-4-methylene-5-oxo-2-furanyl)-2-methoxy-4-(2-methylpropyl)-6-(trifluoromethyl)-, methyl ester]
25 to 49%: inhibition at 11200 g/ha [25]
50 to 74%: inhibition at 11200 g/ha [17] | inhibition at 11200 g/ha [19]
75 to 100%: inhibition at 11200 g/ha [26]
0 to 24%: inhibition at 11200 g/ha [23] | inhibition at 11200 g/ha [24] | inhibition at 11200 g/ha [12] | inhibition at 11200 g/ha [14] | inhibition at 11200 g/ha [18] | inhibition at 11200 g/ha [22]
